Counter-ions that a name gives are not always drawn.
System: MC3T3-E1 cells
Assay: ALP activity, differentiation of osteoblast cells
Type: cell-based
Conditions: Mus musculus, MC3T3-E1, 144 h; MC3T3E1 cells treated with 10 μM compound and OF; relates activity to OF-only group (100%); higher = more efficacious
Protocol: To examine the effects of the inventive indenone derivatives on the differentiation and activation of osteoblast cells, the activity and expression of alkaline phosphatase (ALP), a marker for the differentiation of osteoblast cells, and the bone nodule formation using a mouse derived osteoblast-like cells, MC3T3-E1 (ATCC, Japan) or a primary mouse calvaria derived preosteoblastic cells were observed.
MC3T3-E 1 cells were seeded in a medium containing osteogenic factors (OF) such as ascorbic acids and β-glycerophosphates (b-GP), and each compound of Examples was added thereto at a concentration of 0.1, 1 and 10 μM. The cells were incubated for 6 days (MC3T3-E1 cells) or 7 days (primary mouse calvaria derived preosteoblastic cells) in a 37° C. CO2 incubator. Then, the culture medium was replaced with a fresh medium together with the test compound every two or three days. On the last day, the medium was centrifuged to remove the supernatant, and the cells were washed with PBS. The washed cells were subjected to a 3-cycle freege-thaw treatment using a −70° C. deep freezer to allow enzymes elute in a lysis buffer. The lysed protein was quantified, followed by measurement of ALP activity using 4-nitrophenylphosphate.
Further, a group treated only with DMSO or OF was tested for ALP activities for comparison.

| Compound | activity at 10 µM |
| --- | --- |
| O=C1C(c2cc3ccccc3o2)=C(c2ccccc2)c2ccc(OCCN3CCOCC3)cc21 [Example 91, 6-(2-morpholinoethoxy)-2-(benzofuran-2-yl)-3-phenyl-1H-inden-1-one] | 67% |
| O=C1C(c2cccnc2)=C(c2cc(F)cc(F)c2)c2ccc(OCCC3CCOCC3)cc21 [Example 78, 3-(3,5-difluorophenyl)-2-(pyridin-3-yl)-6-(2-(tetrahydro-2H-pyran-4-yl)ethoxy)-1H-inden-1-one] | 187% |
| COc1ccc(C2=C(c3cc(F)cc(F)c3)c3ccc(OCCN4CCS(=O)(=O)CC4)cc3C2=O)cc1F [Example 95, 2-(3-fluoro-4-methoxyphenyl)-3-(3,5-difluorophenyl)-6-[2-(1,1-dioxothiomorpholin-4-yl)ethoxy]-1H-inden-1-one hydrochloride salt] | 203% |
| O=C1C(c2cncnc2)=C(c2cc(F)cc(F)c2)c2ccc(OCCN3CCOCC3)cc21 [Example 39, 6-(2-morpholinoethoxy)-3-(3,5-difluorophenyl)-2-(pyrimidin-5-yl)-1H-inden-1-one] | 92% |
| N#Cc1ccccc1C1=C(c2ccccc2)c2ccc(OCCN3CCOCC3)cc2C1=O [Example 12, 2-(6-(2-morpholinoethoxy)-1-oxo-3-phenyl-1H-inden-2-yl)benzonitrile] | 365% |
| C[n+]1cccc(C2=C(c3ccccc3)c3ccc(OCCN4CCOCC4)cc3C2=O)c1 [Example 41, 1-methyl-3-{6-[2-(morpholin-4-yl)ethoxy]-1-oxo-3-phenyl-1H-inden-2-yl}pyridin-1-ium iodide] | 329% |
| O=C1C(c2ccc(F)nc2)=C(c2ccccc2)c2ccc(OCCN3CCOCC3)cc21 [Example 9, 6-(2-morpholinoethoxy)-2-(6-fluoropyridin-3-yl)-3-phenyl-1H-inden-1-one] | 87% |
| O=C1C(c2ccccn2)=C(c2ccccc2)c2ccc(OCCN3CCOCC3)cc21 [Example 83, 6-(2-morpholinoethoxy)-3-phenyl-2-(pyridin-2-yl)-1H-inden-1-one] | 18% |
| O=C1C(c2ccc[nH]2)=C(c2ccccc2)c2ccc(OCCN3CCOCC3)cc21 [Example 90, 6-(2-morpholinoethoxy)-3-phenyl-2-(1H-pyrrol-2-yl)-1H-inden-1-one] | 63% |
| COc1ccc(C2=C(c3ccccc3)c3ccc(OCCN4CCOCC4)cc3C2=O)cc1 [Example 22, 6-(2-morpholinoethoxy)-2-(4-methoxyphenyl)-3-phenyl-1H-inden-1-one] | 169% |
| COc1ccc(C2=C(c3cc(F)cc(F)c3)c3ccc(OCCC4CCN(S(C)(=O)=O)CC4)cc3C2=O)cn1 [Example 100, 3-(3,5-difluorophenyl)-2-(6-methoxypyridin-3-yl)-6-{2-[1-(methylsulfonyl)piperidin-4-yl]ethoxy}-1H-inden-1-one hydrochloride salt] | 185% |
| CS(=O)(=O)N1CCN(CCOc2ccc3c(c2)C(=O)C(c2cncnc2)=C3c2ccc(C(F)(F)F)cc2)CC1 [Example 49, 6-(2-(4-(methylsulfonyl)piperazin-1-yl)ethoxy)-2-(pyrimidin-5-yl)-3-(4-(trifluoromethyl)phenyl)-1H-inden-1-one] | 37% |
| O=C1C(c2ccc(F)c(F)c2)=C(c2cc(F)cc(F)c2)c2ccc(OCCN3CCOCC3)cc21 [Example 38, 6-(2-morpholinoethoxy)-2-(3,4-difluorophenyl)-3-(3,5-difluorophenyl)-1H-inden-1-one] | 77% |
| O=C1C(c2ccc(F)c(F)c2)=C(c2ccc(Cl)cc2)c2ccc(OCCN3CCOCC3)cc21 [Example 29, 6-(2-morpholinoethoxy)-3-(4-chlorophenyl)-2-(3,4-difluorophenyl)-1H-inden-1-one] | 84% |
| O=C1C(c2ccc3c(c2)OCO3)=C(c2ccccc2)c2ccc(OCCN3CCOCC3)cc21 [Example 85, 2-(benzo[1,3]dioxol-5-yl)-6-(2-morpholinoethoxy)-3-phenyl-1H-inden-1-one] | 77% |
| CS(=O)(=O)N1CCN(CCOc2ccc3c(c2)C(=O)C(c2cnc4ccccc4c2)=C3c2cc(F)cc(F)c2)CC1 [Example 96, 3-(3,5-difluorophenyl)-6-{2-[4-(methylsulfonyl)piperazin-1-yl]ethoxy}-2-(quinolin-3-yl)-1H-inden-1-one hydrochloride salt] | 152% |
| CC(=O)N1CCC(CCOc2ccc3c(c2)C(=O)C(c2cccnc2)=C3c2cc(F)cc(F)c2)CC1 [Example 72, 6-(2-(1-acetylpiperidin-4-yl)ethoxy)-3-(3,5-difluorophenyl)-2-(pyridin-3-yl)-1H-inden-1-one hydrochloride salt] | 58% |

| Compound | activity at 10 µM |
| --- | --- |
| O=C1C(c2cccnc2)=C(c2cc(F)cc(F)c2)c2ccc(OCCc3ccccn3)cc21 [Example 62, 3-(3,5-difluorophenyl)-6-(2-(pyridin-2-yl)ethoxy)-2-(pyridin-3-yl)-1H-inden-1-one hydrochloride salt] | 90% |
| O=C1C(c2cccnc2)=C(c2ccc(F)cc2F)c2ccc(OCCN3CCOCC3)cc21 [Example 82, 6-(2-morpholinoethoxy)-3-(2,4-difluorophenyl)-2-(pyridin-3-yl)-1H-inden-1-one] | 178% |
| O=C1C(c2cnc3ccccc3c2)=C(c2cc(F)cc(F)c2)c2ccc(OCCN3CCS(=O)(=O)CC3)cc21 [Example 92, 3-(3,5-difluorophenyl)-6-[2-(1,1-dioxothiomorpholin-4-yl)ethoxy]-2-(quinolin-3-yl)-1H-inden-1-one hydrochloride salt] | 262% |
| O=C1C(c2cccnc2)=C(c2cc(F)cc(F)c2)c2ccc(OCCN3CCS(=O)(=O)CC3)cc21 [Example 74, 6-[2-(1,1-dioxothiomorpholin-4-yl)ethoxy]-3-(3,5-difluorophenyl)-2-(pyridin-3-yl)-1H-inden-1-one hydrochloride salt] | 206% |
| O=C1C(c2ccc[n+]([O-])c2)=C(c2ccccc2)c2ccc(OCC[N+]3([O-])CCOCC3)cc21 [Example 43, 4-oxido-4-(2-{[2-(1-oxidopyridin-1-ium-3-yl)-1-oxo-3-phenyl-1H-inden-6-yl]oxy}ethyl)morpholin-4-ium] | 125% |
| COc1ccc(C2=C(c3ccc(F)cc3F)c3ccc(OCCN4CCOCC4)cc3C2=O)cn1 [Example 125, 3-(2,4-difluorophenyl)-2-(6-methoxypyridin-3-yl)-6-[2-(morpholin-4-yl)ethoxy]-1H-inden-1-one] | 63% |
| O=C1C(c2cnc3ccccc3c2)=C(c2ccc(F)cc2F)c2ccc(OCCN3CCS(=O)(=O)CC3)cc21 [Example 115, 3-(2,4-difluorophenyl)-6-[2-(1,1-dioxothiomorpholin-4-yl)ethoxy]-2-(quinolin-3-yl)-1H-inden-1-one] | 199% |
| Cc1ccc(C2=C(c3cc(F)cc(F)c3)c3ccc(OCCC4CCN(S(C)(=O)=O)CC4)cc3C2=O)cc1 [Example 103, 3-(3,5-difluorophenyl)-6-{2-[1-(methylsulfonyl)piperidin-4-yl]ethoxy}-2-p-tolyl-1H-inden-1-one] | 209% |
| COc1ccc(C2=C(c3cc(F)cc(F)c3)c3ccc(OCCCN4CCN(S(C)(=O)=O)CC4)cc3C2=O)cc1F [Example 106, 2-(3-fluoro-4-methoxyphenyl)-3-(3,5-difluorophenyl)-6-{3-[4-(methylsulfonyl)piperazin-1-yl]propoxy}-1H-inden-1-one hydrochloride salt] | 133% |
| CC(C)(C)OC(=O)N1CCN(CCCOc2ccc3c(c2)C(=O)C(c2cccnc2)=C3c2ccccc2)CC1 [Example 55, tert-Butyl 4-(3-(1-oxo-3-phenyl-2-(pyridin-3-yl)-1H-inden-6-yloxy)propyl)piperazine-1-carboxylate] | 129% |
| O=C1C(c2cncnc2)=C(c2ccc(C(F)(F)F)cc2)c2ccc(OCCN3CCOCC3)cc21 [Example 35, 6-(2-morpholinoethoxy)-3-(4-(trifluoromethyl)phenyl)-2-(pyrimidin-5-yl)-1H-inden-1-one] | 79% |
| COc1ccc(C2=C(c3ccc(F)cc3F)c3ccc(OCCC4CCN(S(C)(=O)=O)CC4)cc3C2=O)cc1F [Example 122, 2-(3-fluoro-4-methoxyphenyl)-3-(2,4-difluorophenyl)-6-{2-[1-(methylsulfonyl)piperidin-4-yl]ethoxy}-1H-inden-1-one] | 203% |
| CS(=O)(=O)N1CCN(CCOc2ccc3c(c2)C(=O)C(c2ccc(F)c(F)c2)=C3c2ccc(C(F)(F)F)cc2)CC1 [Example 48, 2-(3,4-difluorophenyl)-6-(2-(4-(methylsulfonyl)piperazin-1-yl)ethoxy)-3-(4-(trifluoromethyl)phenyl)-1H-inden-1-one] | 67% |
| O=C1C(c2cccnc2)=C(c2ccccc2)c2ccc(OCCN3CCNCC3)cc21 [Example 46, 6-(2-(piperazin-1-yl)ethoxy)-3-phenyl-2-(pyridin-3-yl)-1H-inden-1-one] | 107% |
| CN1CCN(CCCOc2ccc3c(c2)C(=O)C(c2cccnc2)=C3c2cc(F)cc(F)c2)CC1 [Example 65, 3-(3,5-difluorophenyl)-6-(3-(4-methylpiperazin-1-yl)propoxy)-2-(pyridin-3-yl)-1H-inden-1-one hydrochloride salt] | 19% |
| COc1ccc(C2=C(c3ccc(F)cc3F)c3ccc(OCCN4CCOCC4)cc3C2=O)cc1F [Example 126, 2-(3-fluoro-4-methoxyphenyl)-3-(2,4-difluorophenyl)-6-[2-(morpholin-4-yl)ethoxy]-1H-inden-1-one] | 73% |
